Among the test systems are A549; MDA-MB-231; EKVX; MDA-MB-435; Malme-3M; HCT-15; SNB-75; NCI-H460; T47D; RPMI-8226; SF-268; SK-MEL-5; SF-295; SK-OV-3; OVCAR-8; HT-29; NCI-H226; SF-539; PC-3; OVCAR-4.
Holding throughout (assay): DTP human tumour cell line panel, 48 h

Structures are written as SMILES.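 Results reflect a 48-hour exposure of cells in 96-well plates to compound at five concentrations. At the GI50, growth is halved.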 The source made the active and inactive calls. No stated cut-off is given here; in the data, active = GI50 up to about 1.1 µM and inactive = higher.

As usually defined, the GI50 is the concentration at which growth is held to half of that of the control. `OCC(O)C1OC2CC1Nc1ccccc1N2` (centres undefined): the GI50 with A549 was > 100 µM (inactive); with MDA-MB-231, > 100 µM (inactive); with EKVX, > 100 µM (inactive); in the test on MDA-MB-435 it was > 100 µM (inactive); with Malme-3M, > 100 µM (inactive); in the test with HCT-15, over 100 µM. Besides, the GI50 in the test on SNB-75, in the test with NCI-H460, in the test with T47D, in the test with RPMI-8226, in the test with SF-268 and in the test on SK-MEL-5 was > 100 µM (inactive) throughout. Also, the GI50 is > 100 µM (inactive) in the test with SF-295; > 100 µM (inactive) in the test with SK-OV-3; > 100 µM (inactive) in the test with OVCAR-8; > 100 µM (inactive) in the test with HT-29; > 100 µM (inactive) in the test on NCI-H226; > 88.7 µM (inactive) in the test with SF-539. Besides, the GI50 with PC-3 is > 100 µM (inactive).

Take `COC(=O)/C=C\C(C#N)(C#N)/N=C/c1cccc(OC)c1`: the GI50 with A549 was 17.9 µM (inactive); in the test on MDA-MB-231, 13.2 µM (inactive); in the test with EKVX it was 11.6 µM (inactive); in the test with MDA-MB-435, 6.5 µM (inactive); in the test on Malme-3M it was 1.71 µM (inactive); with OVCAR-4, 6.67 µM (inactive). Also, the GI50 in the test with HCT-15 is 1.93 µM; in the test with SNB-75, 15.9 µM (inactive); in the test on NCI-H460, 20 µM (inactive); in the test on T47D, 4.8 µM (inactive); in the test with RPMI-8226, 2.71 µM (inactive); in the test on SF-268, 17.2 µM (inactive). Also, the GI50 in the test on SK-MEL-5 is 16.8 µM (inactive); in the test on SF-295, 32.7 µM (inactive); in the test on SK-OV-3, 25.3 µM (inactive); in the test on OVCAR-8, 3.13 µM (inactive); in the test on HT-29 it was 3.77 µM (inactive); with NCI-H226, 14.3 µM (inactive). The GI50 was 2.53 µM (inactive) with SF-539 and 15.8 µM (inactive) with PC-3.

On to `CCOC(=O)C1C(c2ccccc2)C2(C#N)C(=N)OC1(C)C2(C#N)C#N` (centres undefined), for which the GI50 with A549 was > 100 µM (inactive); in the test on MDA-MB-231 it was 10.9 µM (inactive); in the test on EKVX, 21.1 µM (inactive); in the test on MDA-MB-435, 22.4 µM (inactive); in the test on Malme-3M, 20.5 µM (inactive); in the test with HCT-15, 37.3 µM. The GI50 is 1.51 µM (inactive) in the test with SNB-75; 32.1 µM (inactive) in the test with T47D; 20 µM (inactive) in the test on RPMI-8226; 22.4 µM (inactive) in the test on SF-268; 10.5 µM (inactive) in the test on SK-MEL-5; 36.2 µM (inactive) in the test on SF-295. Further, the GI50 with SK-OV-3 is > 100 µM (inactive); in the test on OVCAR-8, 24.5 µM (inactive); with HT-29, 16 µM (inactive); in the test with NCI-H226, 24.3 µM (inactive); in the test on SF-539 it was 18.1 µM (inactive); in the test with PC-3, 25.6 µM (inactive).

On to `CC1OC(n2cc(F)c(=O)[nH]c2=O)C(O[Si](C)(C)C(C)(C)C)C1O[Si](C)(C)C(C)(C)C` (centres undefined), for which the GI50 is 15.8 µM (inactive) in the test on A549; 5.78 µM (inactive) in the test on MDA-MB-231; 16.9 µM (inactive) in the test on EKVX; 17.9 µM (inactive) in the test on MDA-MB-435; 14.9 µM (inactive) in the test on Malme-3M; 6.41 µM (inactive) with OVCAR-4. Also, the GI50 is 12.9 µM with HCT-15; 15.5 µM (inactive) in the test on SNB-75; 10.2 µM (inactive) with T47D; 11.6 µM (inactive) in the test on RPMI-8226; 12 µM (inactive) in the test with SF-268; 14.9 µM (inactive) in the test on SK-MEL-5. In addition, the GI50 is 11.5 µM (inactive) with SF-295; 14.7 µM (inactive) with SK-OV-3; 14.7 µM (inactive) in the test with OVCAR-8; 10.8 µM (inactive) with HT-29; 16.2 µM (inactive) in the test on NCI-H226; 12.6 µM (inactive) in the test with SF-539. Further, the GI50 in the test with PC-3 was 11 µM (inactive).

With `Cc1ccc(C2=CC(=O)/C(=C\C(=O)c3ccc(Br)cc3)O2)c(C)c1`, the GI50 is 18.7 µM (inactive) in the test on A549; 9.31 µM (inactive) with MDA-MB-231; 28.6 µM (inactive) with EKVX; 13.6 µM (inactive) in the test with MDA-MB-435; 10.5 µM (inactive) in the test with Malme-3M; 9.42 µM (inactive) in the test on OVCAR-4. In addition, the GI50 in the test on HCT-15 is 12.2 µM; in the test on SNB-75, 7.85 µM (inactive); in the test on NCI-H460 it was 26.5 µM (inactive); in the test with T47D, 8.79 µM (inactive); in the test with RPMI-8226, 2.87 µM (inactive); with SF-268, 16.2 µM (inactive). Further, the GI50 was 14.5 µM (inactive) in the test with SK-MEL-5; 26 µM (inactive) in the test with SF-295; 7.74 µM (inactive) with SK-OV-3; 6.58 µM (inactive) in the test on OVCAR-8; 7.89 µM (inactive) with HT-29; 10.9 µM (inactive) in the test on NCI-H226. The GI50 is 31.4 µM (inactive) in the test on SF-539 and 5.35 µM (inactive) with PC-3.

As to `Cc1ccc2nc(Cl)c(/C=N/N3C(=O)/C(=C/Cc4ccco4)N=C3c3ccccc3)cc2c1`, the GI50 with A549 was 36.4 µM (inactive); in the test with MDA-MB-231 it was 67.8 µM (inactive); in the test on EKVX it was 30.5 µM (inactive); with MDA-MB-435 it was 2.1 µM (inactive); in the test on Malme-3M it was 63.5 µM (inactive); with OVCAR-4, 51.6 µM (inactive). Moreover, the 50% growth inhibitory concentration (GI50) was 27.7 µM in the test with HCT-15; > 47.4 µM (inactive) with SNB-75; 26.4 µM (inactive) with NCI-H460; > 50 µM (inactive) with T47D; 27 µM (inactive) with RPMI-8226; 31.3 µM (inactive) with SF-268. Further, the GI50 in the test on SK-MEL-5 was 56.4 µM (inactive); in the test on SF-295, > 82.8 µM (inactive); with SK-OV-3 it was > 100 µM (inactive); in the test on OVCAR-8, 34.4 µM (inactive); in the test on HT-29, 32.7 µM (inactive); with NCI-H226, > 54.6 µM (inactive). Moreover, the GI50 with SF-539 is 43.6 µM (inactive); in the test on PC-3, 61.4 µM (inactive).

As to `C[C@@]12C[C@@H](c3ccccc3O1)N1CCSC1=N2`, the GI50 in the test with MDA-MB-231 is > 100 µM (inactive); in the test on EKVX, > 100 µM (inactive); in the test on MDA-MB-435, > 100 µM (inactive); in the test on Malme-3M it was > 100 µM (inactive); in the test with OVCAR-4 it was > 100 µM (inactive); in the test with HCT-15, over 100 µM. In addition, the GI50 with SNB-75, in the test with NCI-H460, with T47D, with RPMI-8226, with SF-268 and in the test on SK-MEL-5 was > 100 µM (inactive) in each case. For the same compound, the GI50 in the test on SF-295, with SK-OV-3, in the test on OVCAR-8, in the test with HT-29, with NCI-H226 and in the test with SF-539 was > 100 µM (inactive) in each case. Besides, in the test with PC-3, the GI50 is > 100 µM (inactive).

For the compound `O=[N+]([O-])c1ccc(-c2nnc(C34CC5CC(CC(C5)C3)C4)o2)cc1`, the GI50 in the test on A549, with MDA-MB-231, with EKVX, in the test on MDA-MB-435, with Malme-3M and in the test with OVCAR-4 was > 100 µM (inactive) each time. Besides, the 50% growth inhibitory concentration (GI50) in the test on HCT-15 is over 100 µM; with SNB-75, > 100 µM (inactive); in the test with NCI-H460 it was > 100 µM (inactive); in the test on T47D, > 100 µM (inactive); in the test on RPMI-8226, > 100 µM (inactive); in the test on SF-268, > 100 µM (inactive). Also, the GI50 with SK-MEL-5, with SF-295, with SK-OV-3, in the test on HT-29, in the test on NCI-H226 and with SF-539 was > 100 µM (inactive) each time. Also, the GI50 in the test on PC-3 was > 100 µM (inactive).
